Measured values published in publication PMC7351026, “Serum Half-Lives for Short- and Long-Chain Perfluoroalkyl Acids after Ceasing Exposure from Drinking Water Contaminated by Firefighting Foam” (Environmental Health Perspectives, 2020).

How the values were obtained:
[1] = PFAS levels in serum samples of airport employees (LC/MS/MS); details: for Serum level in the first samples, median (range) / Relative composition of PFAS in serum, molar concentration basis / Relative composition of PFAS in serum, weight basis / Serum concentration, molar basis / Serum concentration, weight basis: all 26 airport employees; for Relative composition of PFAS in serum, molar concentration basis / Relative composition of PFAS in serum, weight basis: first serum samples; for Serum concentration, molar basis / Serum concentration, weight basis: median of first serum samples
How it was run: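 Serum from airport employees, drawn after contaminated drinking-water exposure ended, up to five monthly rounds, all reanalyzed in one batch. 25 μL serum precipitated with acetonitrile/methanol plus labeled internal standards; LC/MS/MS on BEH C18 with ammonium acetate/methanol gradient, calibrants prepared in FBS.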

[2] = PFAS levels in urine samples of airport employees, specific-gravity adjusted (LC/MS/MS); assay type: in vivo, human; details: for Specific gravity adjusted urine level, median (range): second to fifth samplings, 17 airport employees
Experimental: Only one employee provided a single urine sample. […] All employees provided written informed consent.
The samples were thawed 1–2 h, then mixed by vortex shaker and manual turning. […] For the urine samples, 50μL urine was mixed with 25μL of methanol and 25μL of a 50% acetonitrile solution containing isotopically labeled internal standards (see Table S1). Then samples were shaken vigorously for 30 min and centrifuged at 3,000×g for 10 min at room temperature.
Aliquots of 20μL of the sample were analyzed using LC/MS/MS. […] The analysis was performed in negative ion mode. The ion source temperature was at 350°C.
Urinary PFAS concentrations were specific-gravity adjusted. The ratio of urine and serum concentration for each PFAS (urine/serum ratio) at each sampling was calculated based on PFAS concentrations in paired serum and urine samples from 17 employees. Then the personal average urine/serum ratio was calculated using the mean value of repeated samplings for each employee.

Serum/water ratio = assay type: in vivo, human; details: median serum level of first samples (26 employees) divided by airport drinking-water level
Experimental: The ratio of serum and water concentration for each PFAS (serum/water ratio) was calculated based on median serum level in the first serum sample obtained from all 26 airport employees divided by the drinking-water concentration. This ratio is an indicator of PFAS accumulation in body.

[3] = 1st sampling (September 2018), count 17
[4] = 2nd sampling (October 2018), count 17
[5] = 3rd sampling (November, 2018), count 17
[6] = 4th sampling (December 2018), count 16
[7] = 5th sampling (January 2019), count 16
[8] = employees participated in first blood sampling and repeated blood and urine sampling, N=17
[9] = employees participated in first blood sampling only, N=9, 11-14 d after end of exposure
[10] = 3rd sampling (November, 2018), count 16
[11] = 4th sampling (December 2018), count 14
[12] = 5th sampling (January 2019), count 12

O=C(O)C(F)(F)C(F)(F)C(F)(F)C(F)(F)C(F)(F)C(F)(F)F [PFHpA, perfluoroheptanoic acid]
Serum PFAS level, 25 percentile [1, 3]: 0.45
Serum PFAS level, 75 percentile [1, 3]: 1.1
Serum PFAS level, Max [1, 3]: 2.2
Serum PFAS level, Median [1, 3]: 0.53
Serum PFAS level, Min [1, 3]: 0.20
Serum PFAS level, 25 percentile [1, 4]: 0.18
Serum PFAS level, 75 percentile [1, 4]: 0.83
Serum PFAS level, Max [1, 4]: 2.0
Serum PFAS level, Median [1, 4]: 0.33
Serum PFAS level, Min [1, 4]: 0.07
Serum PFAS level, 25 percentile [1, 5]: 0.09
Serum PFAS level, 75 percentile [1, 5]: 0.75
Serum PFAS level, Max [1, 5]: 2.0
Serum PFAS level, Median [1, 5]: 0.27
Serum PFAS level, Min [1, 5]: 0.08
Serum PFAS level, 25 percentile [1, 6]: 0.09
Serum PFAS level, 75 percentile [1, 6]: 0.72
Serum PFAS level, Max [1, 6]: 1.8
Serum PFAS level, Median [1, 6]: 0.15
Serum PFAS level, Min [1, 6]: 0.05
Serum PFAS level, 25 percentile [1, 7]: < LOD
Serum PFAS level, 75 percentile [1, 7]: 0.50
Serum PFAS level, Max [1, 7]: 1.4
Serum PFAS level, Median [1, 7]: 0.10
Serum PFAS level, Min [1, 7]: < LOD
Serum level in the first samples, median (range) [1]: 0.46 (0.07–2.2) ng/mL
PFAS in first serum sample, median (range) [1, 8]: 0.53 (0.20–2.2) ng/mL
PFAS in first serum sample, median (range) [1, 9]: 0.17 (0.07–1.3) ng/mL
Initial serum PFAS level, max ([1]; females (N=7)): 2.2 ng/mL
Initial serum PFAS level, median ([1]; females (N=7)): 0.46 ng/mL
Initial serum PFAS level, min ([1]; females (N=7)): 0.08 ng/mL
Relative composition of PFAS in serum, molar concentration basis [1]: 0.5%
Relative composition of PFAS in serum, weight basis [1]: 0.4%
Initial serum PFAS level, Max ([1]; males (N=19)): 2.0 ng/mL
Initial serum PFAS level, Min ([1]; males (N=19)): 0.07 ng/mL
Initial serum PFAS level, median ([1]; males (N=19)): 0.45 ng/mL
Serum concentration, molar basis [1]: 0.0013
Serum concentration, weight basis [1]: 0.46
Specific gravity adjusted urinary level, 25 percentile [2, 4]: 0.02 ng/mL
Specific gravity adjusted urinary level, 75 percentile [2, 4]: 0.04 ng/mL
Specific gravity adjusted urinary level, Max [2, 4]: 0.05 ng/mL
Specific gravity adjusted urinary level, Median [2, 4]: 0.03 ng/mL
Specific gravity adjusted urinary level, Min [2, 4]: < LOD
Specific gravity adjusted urinary level, 25 percentile [2, 10]: 0.01 ng/mL
Specific gravity adjusted urinary level, 75 percentile [2, 10]: 0.03 ng/mL
Specific gravity adjusted urinary level, Max [2, 10]: 0.08 ng/mL
Specific gravity adjusted urinary level, Median [2, 10]: 0.02 ng/mL
Specific gravity adjusted urinary level, Min [2, 10]: < LOD
Specific gravity adjusted urinary level, 25 percentile [2, 11]: 0.01 ng/mL
Specific gravity adjusted urinary level, 75 percentile [2, 11]: 0.03 ng/mL
Specific gravity adjusted urinary level, Max [2, 11]: 0.06 ng/mL
Specific gravity adjusted urinary level, Median [2, 11]: 0.02 ng/mL
Specific gravity adjusted urinary level, Min [2, 11]: < LOD
Specific gravity adjusted urinary level, 25 percentile [2, 12]: < LOD
Specific gravity adjusted urinary level, 75 percentile [2, 12]: 0.03 ng/mL
Specific gravity adjusted urinary level, Max [2, 12]: 0.06 ng/mL
Specific gravity adjusted urinary level, Median [2, 12]: 0.02 ng/mL
Specific gravity adjusted urinary level, Min [2, 12]: < LOD
Specific gravity adjusted urine level, median (range) [2]: 0.025 ( <LOD –0.080) ng/mL
Serum/water ratio (Serum/water ratio): 4.74

O=C(O)C(F)(F)C(F)(F)C(F)(F)C(F)(F)C(F)(F)C(F)(F)C(F)(F)F [PFOA, perfluorooctanoic acid]
Serum PFAS level, 25 percentile [1, 3]: 8.7
Serum PFAS level, 75 percentile [1, 3]: 16
Serum PFAS level, Max [1, 3]: 31
Serum PFAS level, Median [1, 3]: 13
Serum PFAS level, Min [1, 3]: 5.0
Serum PFAS level, 25 percentile [1, 4]: 8.3
Serum PFAS level, 75 percentile [1, 4]: 14
Serum PFAS level, Max [1, 4]: 28
Serum PFAS level, Median [1, 4]: 11
Serum PFAS level, Min [1, 4]: 4.1
Serum PFAS level, 25 percentile [1, 5]: 7.9
Serum PFAS level, 75 percentile [1, 5]: 14
Serum PFAS level, Max [1, 5]: 28
Serum PFAS level, Median [1, 5]: 11
Serum PFAS level, Min [1, 5]: 4.6
Serum PFAS level, 25 percentile [1, 6]: 7.5
Serum PFAS level, 75 percentile [1, 6]: 13
Serum PFAS level, Max [1, 6]: 27
Serum PFAS level, Median [1, 6]: 10
Serum PFAS level, Min [1, 6]: 4.3
Serum PFAS level, 25 percentile [1, 7]: 8.0
Serum PFAS level, 75 percentile [1, 7]: 14
Serum PFAS level, Max [1, 7]: 27
Serum PFAS level, Median [1, 7]: 10
Serum PFAS level, Min [1, 7]: 4.4
Serum level in the first samples, median (range) [1]: 9.1 (2.9–31) ng/mL
PFAS in first serum sample, median (range) [1, 8]: 13 (5.0–31) ng/mL
PFAS in first serum sample, median (range) [1, 9]: 6.5 (2.9–11) ng/mL
Initial serum PFAS level, max ([1]; females (N=7)): 20 ng/mL
Initial serum PFAS level, median ([1]; females (N=7)): 6.7 ng/mL
Initial serum PFAS level, min ([1]; females (N=7)): 5.0 ng/mL
Relative composition of PFAS in serum, molar concentration basis [1]: 8.1%
Relative composition of PFAS in serum, weight basis [1]: 8.2%
Initial serum PFAS level, Max ([1]; males (N=19)): 31 ng/mL
Initial serum PFAS level, Min ([1]; males (N=19)): 2.9 ng/mL
Initial serum PFAS level, median ([1]; males (N=19)): 11 ng/mL
Serum concentration, molar basis [1]: 0.022
Serum concentration, weight basis [1]: 9.1
Serum level, median (range) ([1]; second to fifth samplings, 17 airport employees): 10 (4.1–28) ng/mL
Specific gravity adjusted urinary level, 25 percentile [2, 4]: 0.02 ng/mL
Specific gravity adjusted urinary level, 75 percentile [2, 4]: 0.04 ng/mL
Specific gravity adjusted urinary level, Max [2, 4]: 0.07 ng/mL
Specific gravity adjusted urinary level, Median [2, 4]: 0.03 ng/mL
Specific gravity adjusted urinary level, Min [2, 4]: 0.01 ng/mL
Specific gravity adjusted urinary level, 25 percentile [2, 10]: 0.02 ng/mL
Specific gravity adjusted urinary level, 75 percentile [2, 10]: 0.04 ng/mL
Specific gravity adjusted urinary level, Max [2, 10]: 0.07 ng/mL
Specific gravity adjusted urinary level, Median [2, 10]: 0.03 ng/mL
Specific gravity adjusted urinary level, Min [2, 10]: 0.01 ng/mL
Specific gravity adjusted urinary level, 25 percentile [2, 11]: 0.02 ng/mL
Specific gravity adjusted urinary level, 75 percentile [2, 11]: 0.05 ng/mL
Specific gravity adjusted urinary level, Max [2, 11]: 0.13 ng/mL
Specific gravity adjusted urinary level, Median [2, 11]: 0.04 ng/mL
Specific gravity adjusted urinary level, Min [2, 11]: 0.01 ng/mL
Specific gravity adjusted urinary level, 25 percentile [2, 12]: 0.03 ng/mL
Specific gravity adjusted urinary level, 75 percentile [2, 12]: 0.04 ng/mL
Specific gravity adjusted urinary level, Max [2, 12]: 0.07 ng/mL
Specific gravity adjusted urinary level, Median [2, 12]: 0.03 ng/mL
Specific gravity adjusted urinary level, Min [2, 12]: 0.02 ng/mL
Specific gravity adjusted urine level, median (range) [2]: 0.031 (0.010–0.13) ng/mL
Serum/water ratio (Serum/water ratio): 30.3
